Results on 4 molecules are retold here after ChEMBL document CHEMBL4392881, “Noursamycins, Chlorinated Cyclohexapeptides Identified from Molecular Networking of Streptomyces noursei NTR-SR4” (2019).

For assay [1], the system named is Mycolicibacterium vaccae. The experiment in a line: Antibacterial activity against Mycobacterium vaccae JMRC:STI:10670 assessed as diameter of clear inhibition zone by agar diffusion test (reference value: 0 millimeter). The assay is classed as functional. A general note: A growth-free zone around the sample is the usual read-out of agar diffusion tests.
The subject of assay [2] is Salmonella typhimurium. Put plainly: Antibacterial activity against Salmonella typhimurium TA100 measured after 20 hrs. The assay is classed as functional, Salmonella enterica subsp. enterica serovar Typhimurium. As to conditions: Salmonella enterica, TA100, 20 h.
Assay [3] relates to Candida albicans. Put plainly: Antifungal activity against Candida albicans JMRC:STI:25000 assessed as diameter of clear inhibition zone by agar diffusion test (reference value: 0 millimeter). The class given is functional.
Assay [4] has as its system Staphylococcus aureus. Put plainly: Antibacterial activity against mulitdrug-resistant Staphylococcus aureus JMRC:ST:33793 assessed as diameter of colonies in inhibition zone by agar diffusion test (reference value: 0 millimeter). The class given is functional.
Assay [5] deals with Sporobolomyces salmonicolor. The experiment in a line: Antifungal activity against Sporobolomyces salmonicolor JMRC:ST:35974 assessed as diameter of colonies in inhibition zone by agar diffusion test (reference value: 10 millimeter). The class given is functional.
Assay [6] deals with Bacillus subtilis. The experiment in a line: Antibacterial activity against Bacillus subtilis DSM10 measured after 20 hrs. The class given is functional. The following applies: DSM10, 20 h.
Assay [7] concerns Staphylococcus aureus. The experiment in a line: Antibacterial activity against Staphylococcus aureus JMRC:ST:10760 assessed as diameter of clear inhibition zone by agar diffusion test (reference value: 0 millimeter). The class given is functional.
The subject of assay [8] is Pseudomonas aeruginosa. Put plainly: Antibacterial activity against Pseudomonas aeruginosa JMRC:ST:337721 assessed as diameter of clear inhibition zone by agar diffusion test (reference value: 0 millimeter). The class given is functional.
Assay [9] deals with Pseudomonas aeruginosa. The experiment in a line: Antibacterial activity against Pseudomonas aeruginosa JMRC:ST:33772 assessed as diameter of clear inhibition zone by agar diffusion test (reference value: 0 millimeter). The assay is classed as functional.
For assay [10], the system named is Bacillus subtilis. The experiment in a line: Antibacterial activity against Bacillus subtilis JMRC:STI:10880 assessed as diameter of clear inhibition zone by agar diffusion test (reference value: 0 millimeter). The class given is functional.
In assay [11] the test system is Penicillium chrysogenum. Put plainly: Antifungal activity against Penicillium notatum JMRC:STI:50164 assessed as diameter of clear inhibition zone by agar diffusion test (reference value: 10 millimeter). The class given is functional.
In assay [12] the test system is Micrococcus luteus. The experiment in a line: Antibacterial activity against Micrococcus luteus DSM 1790 measured after 20 hrs. The assay is classed as functional. The following applies: DSM 1790, 20 h.
The test system of assay [13] is Mycolicibacterium phlei. Put plainly: Antibacterial activity against Mycobacterium phlei DSM 750 measured after 20 hrs. The assay is classed as functional. The following applies: DSM 750, 20 h.
In assay [14] the test system is Escherichia coli. The experiment in a line: Antibacterial activity against Escherichia coli JMRC:ST:33699 assessed as diameter of clear inhibition zone by agar diffusion test (reference value: 0 millimeter). The class given is functional.
Assay [15] relates to Staphylococcus aureus. The experiment in a line: Antibacterial activity against mulitdrug-resistant Staphylococcus aureus JMRC:ST:33793 assessed as diameter of clear inhibition zone by agar diffusion test (reference value: 0 millimeter). The assay is classed as functional.
Assay [16] concerns Escherichia coli. Put plainly: Antibacterial activity against Escherichia coli DSM 1116 measured after 20 hrs. The following applies: DSM 1116, 20 h. The class given is functional.
Assay [17] has as its system Escherichia coli. The experiment in a line: Antibacterial activity against Escherichia coli BW25113 measured after 20 hrs. The assay is classed as functional. As to conditions: BW25113, 20 h.
In assay [18] the test system is Enterococcus faecalis. The experiment in a line: Antibacterial activity against vancomycin-resistant Enterococcus faecalis JMRC:ST:33700 assessed as diameter of promotion of inhibition zone by agar diffusion test (reference value: 0 millimeter). The assay is classed as functional.
In assay [19] the test system is Mycolicibacterium vaccae. The experiment in a line: Antibacterial activity against Mycobacterium vaccae JMRC:STI:10670 assessed as diameter of colonies in inhibition zone by agar diffusion test (reference value: 0 millimeter). The assay is classed as functional.
The test system of assay [20] is Penicillium chrysogenum. The experiment in a line: Antifungal activity against Penicillium notatum JMRC:STI:50164 assessed as diameter of colonies in inhibition zone by agar diffusion test (reference value: 10 millimeter). The class given is functional.

Each structure is given as a SMILES string. Converted amounts (≈) assume the structure as drawn. A value given as a limit tells only on which side of the number the result lay.

Usually MIC stands for the lowest concentration found to suppress growth. The low end stands for greater potency, the high end for weaker potency. Take `CC[C@@H](C)[C@@H]1NC(=O)[C@@H](CC(C)C)NC(=O)[C@@H](C(C)C)NC(=O)[C@H](Cc2c[nH]c3ccc(Cl)cc23)NC(=O)[C@@H]([C@H](O)C(N)=O)NC(=O)[C@H](CCCN)NC1=O`: the “diameter of the inhibition zone (DIZ)” value in assay [1] is 22 mm; in [3] it was 0 mm; in assay [4], 15 mm; in assay [5], 12 mm; in assay [7] it was 18 mm; in assay [8] it was 10 mm. Further, the “diameter of the inhibition zone (DIZ)” value is on record as 0 mm in [9]; 16 mm in assay [10]; 0 mm in assay [11]; 0 mm in assay [14]; 13 mm in assay [15]; 16 mm in assay [18]. Also, the MIC in assay [2] is 32 µg/mL (≈ 40.5 µM); in assay [6], 32 µg/mL (≈ 40.5 µM); in [12], 32 µg/mL (≈ 40.5 µM); in [13], 32 µg/mL (≈ 40.5 µM); in [16], at least 64 µg/mL; in assay [17] it was at least 64 µg/mL.
On to `CC[C@@H](C)[C@@H]1NC(=O)[C@@H](Cc2ccccc2)NC(=O)[C@@H](C(C)C)NC(=O)[C@H](Cc2c[nH]c3ccc(Cl)cc23)NC(=O)[C@@H]([C@H](O)C(N)=O)NC(=O)[C@H](CCCN)NC1=O`, for which the “diameter of the inhibition zone (DIZ)” value is 21 mm in assay [1]; 26 mm in assay [19]; 0 mm in [3]; 12 mm in assay [5]; 21 mm in assay [7]; 10 mm in assay [8]. Also, the “diameter of the inhibition zone (DIZ)” value was found to be 0 mm in [9]; 18 mm in [10]; 0 mm in assay [11]; 10 mm in assay [14]; 18 mm in assay [15]; 18 mm in [18]. Besides, the MIC in assay [2] is 16 µg/mL (≈ 19.4 µM); in assay [6], 4 µg/mL (≈ 4.85 µM); in assay [12] it was 8 µg/mL (≈ 9.7 µM); in [13], 8 µg/mL (≈ 9.7 µM); in assay [16] it was at least 64 µg/mL; in [17], at least 64 µg/mL.
Regarding `C[C@@H]1[C@H](O)[C@@H](C)/C=C/C=C/C=C/C=C/C=C/C=C/C=C/[C@H](O[C@@H]2O[C@H](C)[C@@H](O)[C@H](N)[C@@H]2O)C[C@@H]2O[C@](O)(C[C@@H](O)C[C@@H](O)[C@H](O)CC[C@@H](O)C[C@@H](O)CC(=O)O[C@H]1C)C[C@H](O)[C@H]2C(=O)O` [AMPHOTERICIN B], the “diameter of the inhibition zone (DIZ)” value in assay [3] turned out to be 20 mm; in [5], 18 mm; in assay [20], 19 mm.
Regarding `O=C(O)c1cn(C2CC2)c2cc(N3CCNCC3)c(F)cc2c1=O` [CIPROFLOXACIN], the “diameter of the inhibition zone (DIZ)” value is 21 mm in assay [19] and 17 mm in assay [18]. Also, the MIC in [2], in assay [6], in [12], in assay [13], in [16] and in [17] was under 0.25 µg/mL each time.
